For assay [1], the system named is Enterococcus faecium VanS (code 568). The conditions noted are these: E. faecium VanS code 568; 0.02% albumine bovine serum; read after 24 h. As for the experimental part:
(§1) MICs were performed using the broth microdilution methodology following the NCCLS procedure (NCCLS Document M7-A4 Vol. 17 No. 2 January 1997) in presence of 0.02% albumine bovine serum with inocula of approximately 5×10^5 cfu/mL. The media employed included cation-adjusted Mueller-Hinton (MH) broth (Difco Laboratories, Detroit, Mich., USA) supplemented or not with 30% (v/v) bovine serum. Tests were read after 24 h incubation at 25-37° C.

Assay [2] has as its system Staphylococcus aureus VISA Met-R (code 3797). As to conditions: S. aureus VISA Met-R code 3797; 0.02% albumine bovine serum; read after 24 h. The protocol: as §1
Assay [3] deals with Escherichia coli (code 47). The conditions noted are these: 0.02% albumine bovine serum, read after 24 h. The protocol:
as §1

In assay [4] the test system is E. faecalisVanA (code 560). The conditions noted are these: E. faecalis VanA code 560; 0.02% albumine bovine serum; read after 24 h. The protocol: as §1
The subject of assay [5] is E. faecium VanA (code 569). As to conditions: 0.02% albumine bovine serum, read after 24 h. The protocol: as §1
Assay [6] relates to C. albicans ATCC 90028 (code 145). The conditions noted are these: 0.02% albumine bovine serum, read after 24 h. The protocol:
as §1

The test system of assay [7] is Staphylococcus aureus VISA (code 3798). The conditions noted are these: S. aureus VISA code 3798; 0.02% albumine bovine serum; read after 24 h. The protocol: as §1
Assay [8] deals with E. faecalisVanS (code 559). As to conditions: E. faecalis VanS code 559; 0.02% albumine bovine serum; read after 24 h. As for the experimental part:
as §1

Assay [9] relates to S. epidermidis ATCC12228 (code 147). As to conditions: 0.02% albumine bovine serum, read after 24 h. As for the experimental part: as §1
Assay [10] relates to S. haemolyticus Met-R (code 1729). As to conditions: 0.02% albumine bovine serum, read after 24 h. As for the experimental part:
as §1

Assay [11] deals with S. haemolyticus Met-S (code 1730). The conditions noted are these: 0.02% albumine bovine serum, read after 24 h. The protocol: as §1

Molecules are shown by their SMILES. A value given as a limit tells only on which side of the number the result lay.

With `C=C1NC(=O)[C@H](C(C)C)NC(=O)[C@H](NC(=O)/C(=C/C)NC(=O)[C@@H](N)[C@@H](C)CC)CSC[C@@H](C(=O)N[C@H]2C(=O)N3CCC[C@H]3C(=O)NCC(=O)N[C@H](C(=O)N[C@H](C(=O)N[C@@H]3CSC[C@@H]4NC(=O)CNC(=O)[C@@H](CSC[C@@H]5NC(=O)[C@H](Cc6c[nH]cn6)NC(=O)[C@@H](CSC[C@@H](C(=O)NC6CCCCC6)NC5=O)NC4=O)NC(=O)CNC(=O)CNC(=O)CNC(=O)[C@H](CCC(=O)NC4CCCCC4)NC3=O)[C@@H](C)O)CS[C@H]2C)NC(=O)[C@H](Cc2c[nH]c3ccccc23)NC1=O` [Compound 1], the “Minimal Inhibitory Concentrations” value was 2 µg/mL in assay [1]; 4 µg/mL in [2]; over 128 µg/mL in [3]; 1 µg/mL in assay [4]; 2 µg/mL in assay [5]; 64 µg/mL in [6]. Besides, the “Minimal Inhibitory Concentrations” value in assay [7] was found to be 2 µg/mL; in assay [8], 1 µg/mL; in assay [9], 2 µg/mL; in assay [10], 32 µg/mL; in assay [11] it was 4 µg/mL.
For `C=C1NC(=O)[C@H](C(C)C)NC(=O)[C@H](NC(=O)/C(=C/C)NC(=O)[C@@H](N)[C@@H](C)CC)CSC[C@@H](C(=O)N[C@H]2C(=O)N3CCC[C@H]3C(=O)NCC(=O)N[C@H](C(=O)N[C@H](C(=O)N[C@@H]3CSC[C@@H]4NC(=O)CNC(=O)[C@@H](CSC[C@@H]5NC(=O)[C@H](Cc6c[nH]cn6)NC(=O)[C@@H](CSC[C@@H](C(=O)N(C)C)NC5=O)NC4=O)NC(=O)CNC(=O)CNC(=O)CNC(=O)[C@H](CCC(=O)N(C)C)NC3=O)[C@@H](C)O)CS[C@H]2C)NC(=O)[C@H](Cc2c[nH]c3ccccc23)NC1=O` [Compound 2], the “Minimal Inhibitory Concentrations” value is 16 µg/mL in [1]; 16 µg/mL in assay [2]; over 128 µg/mL in assay [3]; 16 µg/mL in assay [4]; 16 µg/mL in assay [5]; 64 µg/mL in assay [6]. The “Minimal Inhibitory Concentrations” value is 4 µg/mL in assay [7]; 16 µg/mL in assay [8]; 8 µg/mL in [9]; 32 µg/mL in [10]; 8 µg/mL in [11].
Consider `C=CCNC(=O)CC[C@@H]1NC(=O)[C@H](NC(=O)[C@@H](NC(=O)[C@@H]2CS[C@@H](C)[C@@H](NC(=O)[C@@H]3CSC[C@@H](NC(=O)/C(=C/C)NC(=O)[C@@H](N)[C@@H](C)CC)C(=O)N[C@@H](C(C)C)C(=O)NC(=C)C(=O)N[C@@H](Cc4c[nH]c5ccccc45)C(=O)N3)C(=O)N3CCC[C@H]3C(=O)NCC(=O)N2)[C@@H](C)O)CSC[C@@H]2NC(=O)CNC(=O)[C@@H](CSC[C@@H]3NC(=O)[C@H](Cc4c[nH]cn4)NC(=O)[C@@H](CSC[C@@H](C(=O)NCC=C)NC3=O)NC2=O)NC(=O)CNC(=O)CNC(=O)CNC1=O` [Compound 5], for which the “Minimal Inhibitory Concentrations” value in assay [1] was 8 µg/mL; in [2], 8 µg/mL; in assay [3], over 128 µg/mL; in assay [4] it was 8 µg/mL; in assay [5] it was 8 µg/mL; in assay [6], 32 µg/mL. The “Minimal Inhibitory Concentrations” value in [7] was 2 µg/mL; in assay [8], 8 µg/mL; in assay [9], 4 µg/mL; in assay [10] it was 32 µg/mL; in assay [11], 4 µg/mL.
Take `C=C1NC(=O)[C@H](C(C)C)NC(=O)[C@H](NC(=O)/C(=C/C)NC(=O)[C@@H](N)[C@@H](C)CC)CSC[C@@H](C(=O)N[C@H]2C(=O)N3CCC[C@H]3C(=O)NCC(=O)N[C@H](C(=O)N[C@H](C(=O)N[C@@H]3CSC[C@@H]4NC(=O)CNC(=O)[C@@H](CSC[C@@H]5NC(=O)[C@H](Cc6c[nH]cn6)NC(=O)[C@@H](CSC[C@@H](C(=O)NCc6cccc(OC)c6)NC5=O)NC4=O)NC(=O)CNC(=O)CNC(=O)CNC(=O)[C@H](CCC(=O)NCc4cccc(OC)c4)NC3=O)[C@@H](C)O)CS[C@H]2C)NC(=O)[C@H](Cc2c[nH]c3ccccc23)NC1=O` [Compound 6]: the “Minimal Inhibitory Concentrations” value was 2 µg/mL in assay [1]; 2 µg/mL in assay [2]; over 128 µg/mL in assay [3]; 2 µg/mL in [4]; 1 µg/mL in assay [5]; 32 µg/mL in [6]. For the same compound, the “Minimal Inhibitory Concentrations” value in assay [7] is 1 µg/mL; in [8], 2 µg/mL; in assay [9], 2 µg/mL; in [10] it was over 128 µg/mL; in assay [11] it was 2 µg/mL.
For `C=C1NC(=O)[C@H](C(C)C)NC(=O)[C@H](NC(=O)/C(=C/C)NC(=O)[C@@H](N)[C@@H](C)CC)CSC[C@@H](C(=O)N[C@H]2C(=O)N3CCC[C@H]3C(=O)NCC(=O)N[C@H](C(=O)N[C@H](C(=O)N[C@@H]3CSC[C@@H]4NC(=O)CNC(=O)[C@@H](CSC[C@@H]5NC(=O)[C@H](Cc6c[nH]cn6)NC(=O)[C@@H](CSC[C@@H](C(=O)NCCN)NC5=O)NC4=O)NC(=O)CNC(=O)CNC(=O)CNC(=O)[C@H](CCC(=O)NCCN)NC3=O)[C@@H](C)O)CS[C@H]2C)NC(=O)[C@H](Cc2c[nH]c3ccccc23)NC1=O` [Compound 7], the “Minimal Inhibitory Concentrations” value is 1 µg/mL in assay [1]; 1 µg/mL in [2]; over 128 µg/mL in assay [3]; 2 µg/mL in assay [4]; 1 µg/mL in [5]; 64 µg/mL in assay [6]. For the same compound, the “Minimal Inhibitory Concentrations” value in assay [7] is 0.50 µg/mL; in [8], 4 µg/mL; in assay [9], 1 µg/mL; in assay [10], 0.25 µg/mL; in assay [11] it was under 0.125 µg/mL.
Regarding `C=C1NC(=O)[C@H](C(C)C)NC(=O)[C@H](NC(=O)/C(=C/C)NC(=O)[C@@H](N)[C@@H](C)CC)CSC[C@@H](C(=O)N[C@H]2C(=O)N3CCC[C@H]3C(=O)NCC(=O)N[C@H](C(=O)N[C@H](C(=O)N[C@@H]3CSC[C@@H]4NC(=O)CNC(=O)[C@@H](CSC[C@@H]5NC(=O)[C@H](Cc6c[nH]cn6)NC(=O)[C@@H](CSC[C@@H](C(=O)NCCCCCCCCCCCC)NC5=O)NC4=O)NC(=O)CNC(=O)CNC(=O)CNC(=O)[C@H](CCC(=O)NCCCCCCCCCCCC)NC3=O)[C@@H](C)O)CS[C@H]2C)NC(=O)[C@H](Cc2c[nH]c3ccccc23)NC1=O` [Compound 8], the “Minimal Inhibitory Concentrations” value in [1] amounted to 2 µg/mL; in assay [2] it was 2 µg/mL; in [3] it was 2 µg/mL; in assay [4] it was 1 µg/mL; in assay [5], 2 µg/mL; in assay [6], 0.25 µg/mL. The “Minimal Inhibitory Concentrations” value in assay [7], in assay [8], in assay [9], in [10] and in assay [11] was 1 µg/mL each time.
Turning to `C=C1NC(=O)[C@H](C(C)C)NC(=O)[C@H](NC(=O)/C(=C/C)NC(=O)[C@@H](N)[C@@H](C)CC)CSC[C@@H](C(=O)N[C@H]2C(=O)N3CCC[C@H]3C(=O)NCC(=O)N[C@H](C(=O)N[C@H](C(=O)N[C@@H]3CSC[C@@H]4NC(=O)CNC(=O)[C@@H](CSC[C@@H]5NC(=O)[C@H](Cc6c[nH]cn6)NC(=O)[C@@H](CSC[C@@H](C(=O)Nc6cccc7ccccc67)NC5=O)NC4=O)NC(=O)CNC(=O)CNC(=O)CNC(=O)[C@H](CCC(=O)Nc4cccc5ccccc45)NC3=O)[C@@H](C)O)CS[C@H]2C)NC(=O)[C@H](Cc2c[nH]c3ccccc23)NC1=O` [Compound 9], the “Minimal Inhibitory Concentrations” value in assay [1] was 8 µg/mL; in assay [2], 32 µg/mL; in assay [3], over 128 µg/mL; in assay [4], 16 µg/mL; in assay [5], 16 µg/mL; in [6], 32 µg/mL. For the same compound, the “Minimal Inhibitory Concentrations” value in [7] is 32 µg/mL; in assay [8], 16 µg/mL; in [9] it was 16 µg/mL; in assay [10], 16 µg/mL; in assay [11], 16 µg/mL.

Values taken from patent publication US20120053115A1, “Lantibiotic Carboxyamide Derivatives With Enhanced Antibacterial Activity” (Sentinella Pharmaceuticals, Inc., priority 2008, published 2012).
